Measurements published in US20240226104A1, “PI3K INHIBITORS, NANOFORMULATIONS, AND USES THEREOF” (THE REGENTS OF THE UNIVERSITY OF MICHIGAN, priority 2021, published 2024).

The compounds below were run on 3D multicellular tumor spheroids (4T1 cells and M2 macrophages derived from RAW264.7 cells) (assay: 3D multicellular tumor spheroids (MCTs) growth). Details: single drug 5 μM; combination 2.5 μM plus 2.5 μM; 14 days.
Format: cell-based
Method: 3D multicellular tumor spheroids (MICs), 4T1 cells and M2 macrophages derived from RAW264.7 cells were mixed in the ratio of 7:3 and then seeded into an ultralow-attachment 96 well plate (Corning) at a density of 5,000 cells/well and cultured for 30 h to form the tumor spheroids. These tumor spheroids were separately incubated with 300 μL complete medium supplemented with PTX ([…]), gemcitabine (5 μM), doxorubicin (5 μM), and IPI-549 (5 μM) as well as the combination of IPI-549 and PTX (2.5 μM+[…]), IPI-549 and gemcitabine (2.5 μM+2.5 μM), and IPI-549 and doxorubicin (2.5 μM+2.5 μM) for 14 days. The volumes ([major axis]×[minor axis]^2/2) of the MTCs were monitored every other day using an Olympus IX83 motorized inverted microscope with cellSens Dimension software (Olympus), and images were captured using a CellInsight CX5 High-Content Screening (HCS) Platform (Thermo Fisher) at 4× magnification.
For `C[C@H](NC(=O)c1c(N)nn2cccnc12)c1cc2cccc(C#Cc3cnn(C)c3)c2c(=O)n1-c1ccccc1` [IPI-549], the “inhibition of 3D MCTs growth” value was “limited inhibition of 3D MCTs growth”.
In the case of `CC(=O)O[C@H]1C(=O)[C@@]2(C)[C@H]([C@H](OC(=O)c3ccccc3)[C@]3(O)C[C@H](OC(=O)[C@H](O)[C@@H](NC(=O)c4ccccc4)c4ccccc4)C(C)=C1C3(C)C)[C@]1(OC(C)=O)CO[C@@H]1C[C@@H]2O` [PTX, paclitaxel], the “inhibition of 3D MCTs growth” value is reported as “limited inhibition of 3D MCTs growth”.
With `COc1cccc2c1C(=O)c1c(O)c3c(c(O)c1C2=O)C[C@@](O)(C(=O)CO)C[C@@H]3O[C@H]1C[C@H](N)[C@H](O)[C@H](C)O1` [doxorubicin] the “inhibition of 3D MCTs growth” value was “limited inhibition of 3D MCTs growth”.
For `Nc1ccn([C@@H]2O[C@H](CO)[C@@H](O)C2(F)F)c(=O)n1` [gemcitabine], the “inhibition of 3D MCTs growth” value was “limited inhibition of 3D MCTs growth”.
